Measurements reported in US10294202B2, “Pyrrolidinones as herbicides” (FMC Corporation, priority 2013, dated 2019).

Legend:
barnyardgrass [1] = assay: Test C pre-/postemergence herbicide test; format: in vivo, Echinochloa crus-galli; details: Preemergence
In short: (§1)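 Greenhouse pots; formulation = non-phytotoxic solvent mix + surfactant. PRE onto seeds in loam:sand; POST at 1–4 leaves (2–18 cm) in peat moss/vermiculite medium. Read-out: visual % control vs untreated, day 13–15.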

ryegrass, Italian = assay: Test C pre-/postemergence herbicide test; format: in vivo, Lolium multiflorum; details: Preemergence
In short: as §1

ducksalad = assay: Test B flooded paddy test; format: in vivo, Heteranthera limosa; details: 1000 g ai/ha, Flood; scale of 0 to 100 where 0 is no effect and 100 is complete control
In short: (§2)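 In-water application to pots flooded 3 cm deep, plants at 2-leaf stage. Held in greenhouse 13–15 days at constant flood depth. Scored 0–100 by eye against controls.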

galium = assay: Test C pre-/postemergence herbicide test; format: in vivo, Galium aparine; details: Preemergence
In short: as §1

morningglory = assay: Test C pre-/postemergence herbicide test; format: in vivo, Ipomoea coccinea; details: Preemergence
In short: as §1

pigweed = assay: Test C pre-/postemergence herbicide test; format: in vivo, Amaranthus retroflexus; details: Preemergence
In short: as §1

soybean = assay: Test C pre-/postemergence herbicide test; format: in vivo, Glycine max; details: Preemergence
In short: as §1

corn = assay: Test C pre-/postemergence herbicide test; format: in vivo, Zea mays; details: Preemergence
In short: as §1

waterhemp = assay: Test C pre-/postemergence herbicide test; format: in vivo, Amaranthus rudis; details: Preemergence
In short: as §1

wheat (winter wheat) = assay: Test C pre-/postemergence herbicide test; format: in vivo, Triticum aestivum; details: Preemergence
In short: as §1

lambsquarters = assay: Test C pre-/postemergence herbicide test; format: in vivo, Chenopodium album; details: Preemergence
In short: as §1

barnyardgrass [2] = assay: Test B flooded paddy test; format: in vivo, Echinochloa crus-galli; details: 1000 g ai/ha, Flood; scale of 0 to 100 where 0 is no effect and 100 is complete control
In short: as §2

sedge, umbrella = assay: Test B flooded paddy test; format: in vivo, Cyperus difformis; details: 1000 g ai/ha, Flood; scale of 0 to 100 where 0 is no effect and 100 is complete control
In short: as §2

ragweed = assay: Test C pre-/postemergence herbicide test; format: in vivo, Ambrosia elatior; details: Preemergence
In short: as §1

[3] = 31 g ai/ha, scale 0 to 100, 0 is no effect and 100 is complete control
[4] = 62 g ai/ha, scale 0 to 100 (0 no effect, 100 complete control)
[5] = 125 g ai/ha, scale 0 to 100 (0 no effect, 100 complete control)

SMILES: O=C1NCC(c2ccc(C(F)(F)F)nc2)C1C(=O)Nc1ccccc1F (racemic) [Compound 262]
- Barnyardgrass plant response rating (barnyardgrass [1]; [3]): 45
- Barnyardgrass plant response rating (barnyardgrass [1]; [4]): 70
- Plant response rating, Barnyardgrass (barnyardgrass [1]; [5]): 90
- Plant response rating (scale of 0 to 100; 0 is no effect, 100 is complete control), Barnyardgrass (barnyardgrass [1]; 250 g ai/ha): 95
- Ryegrass, Italian plant response rating (ryegrass, Italian; [3]): 0
- Ryegrass, Italian plant response rating (ryegrass, Italian; [4]): 0
- Plant response rating, Ryegrass, Italian (ryegrass, Italian; [5]): 0
- Plant response rating (scale of 0 to 100), Ryegrass, Italian (ryegrass, Italian; 250 g ai/ha): 0
- Plant response rating, Ducksalad (ducksalad): 100
- Galium plant response rating (galium; [3]): 0
- Galium plant response rating (galium; [4]): 40
- Plant response rating, Galium (galium; [5]): 60
- Plant response rating (scale of 0 to 100), Galium (galium; 250 g ai/ha): 85
- Morningglory plant response rating (morningglory; [3]): 0
- Morningglory plant response rating (morningglory; [4]): 0
- Plant response rating, Morningglory (morningglory; [5]): 10
- Plant response rating (scale of 0 to 100), Morningglory (morningglory; 250 g ai/ha): 10
- Pigweed plant response rating (pigweed; [3]): 0
- Pigweed plant response rating (pigweed; [4]): 0
- Plant response rating, Pigweed (pigweed; [5]): 0
- Plant response rating (scale of 0 to 100), Pigweed (pigweed; 250 g ai/ha): 5
- Soybean plant response rating (soybean; [3]): 0
- Soybean plant response rating (soybean; [4]): 0
- Plant response rating, Soybean (soybean; [5]): 0
- Plant response rating (scale of 0 to 100), Soybean (soybean; 250 g ai/ha): 0
- Corn plant response rating (corn; [3]): 0
- Corn plant response rating (corn; [4]): 0
- Plant response rating, Corn (corn; [5]): 10
- Plant response rating (scale of 0 to 100), Corn (corn; 250 g ai/ha): 10
- Waterhemp plant response rating (waterhemp; [3]): 0
- Waterhemp plant response rating (waterhemp; [4]): 50
- Plant response rating, Waterhemp (waterhemp; [5]): 60
- Plant response rating (scale of 0 to 100), Waterhemp (waterhemp; 250 g ai/ha): 50
- Wheat plant response rating (wheat (winter wheat); [3]): 0
- Wheat plant response rating (wheat (winter wheat); [4]): 0
- Plant response rating (scale of 0 to 100), Wheat (wheat (winter wheat); 250 g ai/ha): 0
- Lambsquarters plant response rating (lambsquarters; [3]): 100
- Lambsquarters plant response rating (lambsquarters; [4]): 70
- Plant response rating, Lambsquarters (lambsquarters; [5]): 80
- Plant response rating (scale of 0 to 100), Lambsquarters (lambsquarters; 250 g ai/ha): 100
- Plant response rating, Barnyardgrass (barnyardgrass [2]): 20
- Plant response rating, Sedge, Umbrella (sedge, umbrella): 0
- Ragweed plant response rating (ragweed; [3]): 0
- Ragweed plant response rating (ragweed; [4]): 20
- Plant response rating, Ragweed (ragweed; [5]): 10
- Plant response rating (scale of 0 to 100), Ragweed (ragweed; 250 g ai/ha): 75
